Source: patent US20230092679A1, “MCL-1 INHIBITOR ANTIBODY-DRUG CONJUGATES AND METHODS OF USE” (NOVARTIS AG, priority 2019, published 2023)

Assays:
Format in all cases: cell-based
HCC2218 = assay: CellTiter-Glo proliferation assay (Example 6); conditions: HER2 Mcl-1 ADCs and payload P1, 5 days
Protocol: (§1) Mcl-1 ADCs were tested on nine endogenous cancer cell lines and one isogenic cell line engineered to overexpress a target of interest. Six targets were assessed: HER2, BCMA, CD38, CD48, CD79b, and CD33.
(§2) Cell lines • HER2: HCC1954 (ATCC No. CRL-2338 cultured in RPMI-1640+10% FBS) and HCC2218 (ATCC No. CRL-2343 cultured in RPMI-1640+10% FBS). • BCMA: NCI-H929 (ATCC No. CRL-9068 cultured in RPMI-1640+10% FBS+0.05 mM 2-mercaptoethanol). • CD38: A4-Fuk (JCRB No. JCRB0097 cultured in RPMI-1640+10% FBS) and KMS-21 BM (JCRB No. JCRB1185 cultured in RPMI-1640+10% FBS). • CD48: NCI-H929 (ATCC No. CRL-9068 cultured in RPMI-1640+10% FBS+0.05 mM 2-mercaptoethanol), OPM-2 (DSMZ No. ACC-50 cultured in RPMI-1640+10% FBS) and AMO1 (DSMZ No. ACC-538 cultured in RPMI-1640+20% FBS). • CD79b: RS4;11 (ATCC No. CRL-1873 cultured in RPMI-1640+10% FBS). • CD33: MOLM-13 (DSMZ No. ACC-554 cultured in RPMI-1640+10% FBS) and an isogenic cell line, AMO1-CD33 clone D2. AMO1 cell line was transfected to generate a stable AMO1 cell line expressing the exogenous protein of interest, CD33, AMO1-CD33 clone D2 (cultured in RPMI-1640+20% FBS).
(§3) The ability of Mcl-1 ADCs to inhibit cell proliferation and survival was assessed using a Promega CellTiter-Glo® proliferation assay. Cell lines were cultured in media optimal for their growth at 5% CO2, 37° C. in a tissue culture incubator. Prior to seeding for the proliferation assay, the cells were split at least 2 days before the assay to ensure optimal growth density. On the day of seeding, adherent cells were lifted off tissue culture flasks using 0.25% trypsin. Cell viability and cell density were determined using a cell counter (Vi-Cell XR Cell Viability Analyzer, Beckman Coulter). […] Cells were seeded at a density of 1,000 cells per well in 45 μl of standard growth media. Plates were incubated at 5% CO2, 37° C. overnight in a tissue culture incubator. The next day, free Mcl-1 payload (P1), targeting Mcl-1 ADCs, and non-targeting isotype ADCs were prepared at 10× in standard growth media. The prepared drug treatments were then added to the cells resulting in final concentrations of 0.0005-500 nM and a final volume of 50 μl per well. Each drug concentration was tested in quadruplets. Plates were incubated at 5% CO2, 37° C. for 5 days in a tissue culture incubator, after which cell viability was assessed through the addition of 25 μl of CellTiter Glo® (Promega, Cat. No. G7573), a reagent which lyses cells and measures total adenosine triphosphate (ATP) content. Plates were incubated at room temperature for 10 minutes to stabilize luminescent signals prior to reading using a luminescence reader (EnVision Multilabel Plate Reader, PerkinElmer). To evaluate the effect of the drug treatments, luminescent counts from wells containing untreated cells (100% viability) were used to normalize treated samples. A variable slope model was applied to fit a nonlinear regression curve to the data in GraphPad PRISM version 7.02 software. IC50 and Amax values were extrapolated from the resultant curves.

RS4;11 = assay: CellTiter-Glo proliferation assay (Example 6); conditions: CD79b Mcl-1 ADCs and payload P1, 5 days
Protocol: as §1, §2, §3

NCI-H929 = assay: CellTiter-Glo proliferation assay (Example 6); conditions: for Amax H929: in %; for IC50: Homo sapiens, NCI-H929, 120 h
Protocol: as §1, §2, §3

HCC1954 = assay: CellTiter-Glo proliferation assay (Example 6); conditions: HER2 Mcl-1 ADCs and payload P1, 5 days
Protocol: as §1, §2, §3

OPM-2 = assay: CellTiter-Glo proliferation assay (Example 6); conditions: CD48 Mcl-1 ADCs and payload P1, 5 days
Protocol: as §1, §2, §3

MOLM-13 = assay: CellTiter-Glo proliferation assay (Example 6); conditions: CD33 Mcl-1 ADCs and payload P1, 5 days
Protocol: as §1, §2, §3

ocim1 = assay: In vitro ADC activity, AML cell lines, CellTiter-Glo (Example 20); conditions: ocim1, 5 days
[1] = BCMA Mcl-1 ADCs (Table 29) and payload P1, 5 days
[2] = CD48 Mcl-1 ADCs (Table 25) and payload P1, 5 days

## COc1ccccc1-c1nccc(COc2ccccc2C[C@@H](Oc2ncnc3sc(-c4ccc(F)cc4)c(-c4ccc(OCCN5CCN(C)CC5)c(Cl)c4C)c23)C(=O)O)n1 [P1, (2R)-2-[5-[3-chloro-2-methyl-4-[2-(4-methylpiperazin-1-yl)ethoxy]phenyl]-6-(4-fluorophenyl)thieno[2,3-d]pyrimidin-4-yl]oxy-3-[2-[[2-(2-methoxyphenyl)pyrimidin-4-yl]methoxy]phenyl]propanoic acid]
HCC2218; in % (unit assumed)
  Amax HCC2218: 100.40
HCC2218; Homo sapiens, HCC2218, 120 h
  IC50: 14.1 nM
RS4;11
  Amax RS; 411: 132.40
RS4;11; Homo sapiens, RS4-11, 120 h, read-out: IC50 (nM) RS, 411
  IC50: 0.299 nM
NCI-H929; [1]
  Amax H929: 89.16
  IC50: 5.61 nM
NCI-H929; [2]
  Amax H929: 25.79
  IC50: 0.394 nM
HCC1954; unit assumed
  Amax HCC1954: 64.8%
HCC1954; Homo sapiens, HCC1954, 120 h
  IC50: 63.5 nM
OPM-2
  Amax OPM2: 22.97
OPM-2; Homo sapiens, OPM-2, 120 h, read-out: IC50 (nM) OPM2
  IC50: 0.136 nM
MOLM-13
  Amax MOLM13: 128.80
MOLM-13; Homo sapiens, MOLM-13, 120 h, read-out: IC50 (nM) MOLM13
  IC50: 2.44 nM
ocim1; OCI-M1, 120 h
  GI50: > 10000 nM
ocim1; unit assumed
  Amax: 86%
